Data on 35 compounds can be found in patent publication US20100166765A1, “BENZOQUINAZOLINE DERIVATIVES” (priority 2005, published 2010).

As usually defined, the melting point is the temperature, or range, at which the solid turns liquid. Compound `C#CCOc1ccc2nc(C(=O)c3cccs3)nc(-c3ccc(C(C)C)cc3)c2c1` [Example 35, Thiophen-2-yl-[4-(4-isopropyl-phenyl)-6-propargyloxy-quinazolin-2-yl]-methanone] gave a melting point of 113 to 117 °C. On to `C#CCOc1ccc2nc(C(=O)c3ccc(OC(C)(C)C)cc3)nc(-c3ccc(C(C)C)cc3)c2c1` [Example 29, (4-tert.Butyloxy-phenyl)-[4-(4-isopropyl-phenyl)-6-propargyloxy-quinazolin-2-yl]-methanone], for which the melting point was 130 to 132 °C. For the compound `C#CCOc1ccc2nc(C(=O)c3ccc(OC)cc3)nc(-c3ccc(C(C)(C)C)cc3)c2c1` [Example 26, (4-Methoxy-phenyl)-[4-(4-tert.butyl-phenyl)-6-propargyloxy-quinazolin-2-yl]-methanone], the melting point lay within 150 to 152 °C. In turn, `C#CCOc1ccc2nc(C(=O)c3ccc(Br)cc3)nc(-c3ccc(C(C)C)cc3)c2c1` [Example 13, (4-Bromo-phenyl)-[4-(4-isopropyl-phenyl)-6-propargyloxy-quinazolin-2-yl]-methanone] displayed a melting point of 97 to 100 °C. For `C#CCOc1ccc2nc(C(=O)c3ccc(N(C)C)cc3)nc(-c3ccc(C(C)C)cc3)c2c1` [Example 20, (4-Dimethylamino-phenyl)-[4-(4-isopropyl-phenyl)-6-propargyloxy-quinazolin-2-yl]-methanone], the melting point fell in the range of 148 to 151 °C. Compound `C#CCOc1ccc2nc(C(=O)c3ccc(N(C)C)cc3)nc(-c3ccc(C4CC4)cc3)c2c1` [Example 24, (4-Dimethylamino-phenyl)-[4-(4-cyclopropyl-phenyl)-6-propargyloxy-quinazolin-2-yl]-methanone] displayed a melting point of 169 to 172 °C.

The compound `C#CCOc1ccc2nc(C(=O)c3ccc(N(C)C)cc3)nc(-c3ccc(C(C)(C)C)cc3)c2c1` [Example 23, (4-Dimethylamino-phenyl)-[4-(4-tert.butyl-phenyl)-6-propargyloxy-quinazolin-2-yl]-methanone] came in with a melting point of 150 to 152 °C.

On to `C#CCOc1ccc2nc(C(=O)c3ccc(SC)cc3)nc(-c3ccc(C(C)C)cc3)c2c1` [Example 18, (4-Methylthio-phenyl)-[4-(4-isopropyl-phenyl)-6-propargyloxy-quinazolin-2-yl]-methanone], for which the melting point lay within 161 to 164 °C. The compound `C#CCOc1ccc2nc(C(=O)c3ccc(CCC)cc3)nc(-c3ccc(C(C)C)cc3)c2c1` [Example 16a, (4-Propyl-phenyl)-[4-(4-isopropyl-phenyl)-6-propargyloxy-quinazolin-2-yl]-methanone] returned a melting point of 140 to 142 °C. Compound `C#CCOc1ccc2nc(C(=O)c3ccc(C(C)(C)C)cc3)nc(-c3ccc(C(C)C)cc3)c2c1` [Example 1, (4-tert-Butyl-phenyl)-[4-(4-isopropyl-phenyl)-6-propargyloxy-quinazolin-2-yl]-methanone] registered a melting point of 166 to 168 °C. To `C#CCOc1ccc2nc(C(=O)c3ccc(OC)c(OCC)c3)nc(-c3ccc(C(C)C)cc3)c2c1` [Example 28, (3-Ethoxy-4-methoxy-phenyl)-[4-(4-isopropyl-phenyl)-6-propargyloxy-quinazolin-2-yl]-methanone] belongs 148 °C; to `C#CCOc1ccc2nc(C(=O)c3sccc3C)nc(-c3ccc(C(C)C)cc3)c2c1` [Example 36], 130 to 132 °C; to `C#CCOc1ccc2nc(C(=O)c3ccc(S(C)(=O)=O)cc3)nc(-c3ccc(C(C)C)cc3)c2c1` [Example 19, (4-Methansulfonyl-phenyl)-[4-(4-isopropyl-phenyl)-6-propargyloxy-quinazolin-2-yl]-methanone], 181 to 184 °C. The compound `C#CCOc1ccc2nc(C(=O)c3ccc(C(C)C)cc3)nc(-c3ccc(C(C)C)cc3)c2c1` [Example 15, (4-Isopropyl-phenyl)-[4-(4-isopropyl-phenyl)-6-propargyloxy-quinazolin-2-yl]-methanone] returned a melting point of 132 to 134 °C.

For `C#CCOc1ccc2nc(C(=O)c3cccc(Br)c3)nc(-c3ccc(C(C)C)cc3)c2c1` [Example 12, (3-Bromo-phenyl)-[4-(4-isopropyl-phenyl)-6-propargyloxy-quinazolin-2-yl]-methanone], the melting point was determined as 132 °C. To `C#CCOc1ccc2nc(C(=O)c3cccn3C)nc(-c3ccc(C(C)C)cc3)c2c1` [Example 39, (1-Methyl-1H-pyrrol)-2-yl-[4-(4-isopropyl-phenyl)-6-propargyloxy-quinazolin-2-yl]-methanone] belongs 126 to 128 °C; to `C#CCOc1ccc2nc(C(=O)c3ccc(OCC)cc3)nc(-c3ccc(C(C)C)cc3)c2c1` [Example 21, (4-Ethoxy-phenyl)-[4-(4-isopropyl-phenyl)-6-propargyloxy-quinazolin-2-yl]-methanone], 117 to 119 °C; to `C#CCOc1ccc2nc(C(=O)c3ccc(C(=O)OCC)cc3)nc(-c3ccc(C(C)C)cc3)c2c1` [Example 25, 4-[4-(4-Isopropyl-phenyl)-6-propargyloxy-quinazoline-2-carbonyl]-benzoic acid ethyl ester], 132 to 134 °C. For the compound `C#CCOc1ccc2nc(C(=O)c3ccc(CC)cc3)nc(-c3ccc(C(C)C)cc3)c2c1` [Example 16, (4-Ethyl-phenyl)-[4-(4-isopropyl-phenyl)-6-propargyloxy-quinazolin-2-yl]-methanone], the melting point was 108 to 111 °C. In turn, `C#CCOc1ccc2nc(C(=O)c3ccc(F)cc3)nc(-c3ccc(C(C)C)cc3)c2c1` [Example 6, (4-Fluoro-phenyl)-[4-(4-isopropyl-phenyl)-6-propargyloxy-quinazolin-2-yl]-methanone] gave a melting point of 124 to 126 °C. `C#CCOc1ccc2nc(C(=O)c3cccc(Cl)c3)nc(-c3ccc(C(C)C)cc3)c2c1` [Example 8, (3-Chloro-phenyl)-[4-(4-isopropyl-phenyl)-6-propargyloxy-quinazolin-2-yl]-methanone] showed a melting point of 128 to 130 °C.

For `C#CCOc1ccc2nc(C(=O)c3ccc(OC)cc3)nc(-c3ccc(C4CC4)cc3)c2c1` [Example 27], the melting point was in the range of 147 to 149 °C. In the case of `C#CCOc1ccc2nc(C(=O)c3ccco3)nc(-c3ccc(C(C)C)cc3)c2c1` [Example 32, Furan-2-yl-[4-(4-isopropyl-phenyl)-6-propargyloxy-quinazolin-2-yl]-methanone], the melting point lay in the range of 150 to 151 °C.

In turn, `C#CCOc1ccc2nc(C(=O)c3ccc(OCCCC)cc3)nc(-c3ccc(C(C)C)cc3)c2c1` [Example 31, (4-Butyloxy)-[4-(4-isopropyl-phenyl)-6-propargyloxy-quinazolin-2-yl]-methanone] displayed a melting point of 91 to 93 °C. Turning to `C#CCOc1ccc2nc(C(=O)c3ccc(O)cc3)nc(-c3ccc(C(C)C)cc3)c2c1` [Example 30, (4-Hydroxy)-[4-(4-isopropyl-phenyl)-6-propargyloxy-quinazolin-2-yl]-methanone], the melting point lay within 185 to 187 °C. To `C#CCOc1ccc2nc(C(=O)c3ccoc3)nc(-c3ccc(C(C)C)cc3)c2c1` [Example 34, Furan-3-yl-[4-(4-isopropyl-phenyl)-6-propargyloxy-quinazolin-2-yl]-methanone] belongs 133 °C; to `C#CCOc1ccc2nc(C(=O)c3ccc(Cl)cc3)nc(-c3ccc(C(C)C)cc3)c2c1` [Example 9, (4-Chloro-phenyl)-[4-(4-isopropyl-phenyl)-6-propargyloxy-quinazolin-2-yl]-methanone], 108 to 110 °C.

As to `C#CCOc1ccc2nc(C(=O)c3cc4ccccc4s3)nc(-c3ccc(C(C)C)cc3)c2c1` [Example 37, Benz[b]thiophen-2-yl-[4-(4-isopropyl-phenyl)-6-propargyloxy-quinazolin-2-yl]-methanone], the melting point was in the range of 167 to 169 °C. In turn, `C#CCOc1ccc2nc(C(=O)c3cccc(F)c3)nc(-c3ccc(C(C)(C)C)cc3)c2c1` [Example 11, (3-Fluoro-phenyl)-[4-(4-tert.butyl-phenyl)-6-propargyloxy-quinazolin-2-yl]-methanone] came in with a melting point of 156 to 158 °C. `C#CCOc1ccc2nc(C(=O)c3ccc(C)cc3)nc(-c3ccc(C(C)C)cc3)c2c1` [Example 14, (4-Methyl-phenyl)-[4-(4-isopropyl-phenyl)-6-propargyloxy-quinazolin-2-yl]-methanone] returned a melting point of 130 to 132 °C. The compound `C#CCOc1ccc2nc(C(=O)c3cccc(F)c3)nc(-c3ccc(C(C)C)cc3)c2c1` [Example 7, (3-Fluoro-phenyl)-[4-(4-isopropyl-phenyl)-6-propargyloxy-quinazolin-2-yl]-methanone] gave a melting point of 118 to 120 °C. As to `C#CCOc1ccc2nc(C(=O)c3ccoc3)nc(-c3ccc(C(C)(C)C)cc3)c2c1` [Example 33, Furan-3-yl-[4-(4-tert.butyl-phenyl)-6-propargyloxy-quinazolin-2-yl]-methanone], the melting point was found to be 170 °C.

Turning to `C#CCOc1ccc2nc(C(=O)c3ccc(C#N)cc3)nc(-c3ccc(C(C)C)cc3)c2c1` [Example 17, (4-Cyano-phenyl)-[4-(4-isopropyl-phenyl)-6-propargyloxy-quinazolin-2-yl]-methanone], the melting point lay in the range of 130 to 132 °C. As to `C#CCOc1ccc2nc(C(=O)c3ccc(F)cc3)nc(-c3ccc(C(C)(C)C)cc3)c2c1` [Example 10, (4-Fluoro-phenyl)-[4-(4-tert.butyl-phenyl)-6-propargyloxy-quinazolin-2-yl]-methanone], the melting point fell in the range of 105 to 107 °C. `C#CCOc1ccc2nc(C(=O)c3ccc(C(=O)OC)cc3)nc(-c3ccc(C(C)C)cc3)c2c1` [Example 22, 4-[4-(4-Isopropyl-phenyl)-6-propargyloxy-quinazoline-2-carbonyl]-benzoic acid methyl ester] displayed a melting point of 108 to 110 °C.
